In patent publication US7026488B2, “Antitumor agents and process for producing the same” (priority 2001, dated 2006):
Entries after “also recorded” stand apart in the source; their conditions may differ.

Experiments:
[1] = biological target: T1, purified heme oxygenase fraction derived from rat spleen (Rattus norvegicus, UniProt P06762); assay: Inhibitory activity against heme oxygenase (bilirubin formation, Lineweaver-Burk plot); type: biochemical
T1 construct: purified heme oxygenase fraction derived from rat spleen; from tissue; host or cells: rat spleen
T1 sequence (P06762 1-289): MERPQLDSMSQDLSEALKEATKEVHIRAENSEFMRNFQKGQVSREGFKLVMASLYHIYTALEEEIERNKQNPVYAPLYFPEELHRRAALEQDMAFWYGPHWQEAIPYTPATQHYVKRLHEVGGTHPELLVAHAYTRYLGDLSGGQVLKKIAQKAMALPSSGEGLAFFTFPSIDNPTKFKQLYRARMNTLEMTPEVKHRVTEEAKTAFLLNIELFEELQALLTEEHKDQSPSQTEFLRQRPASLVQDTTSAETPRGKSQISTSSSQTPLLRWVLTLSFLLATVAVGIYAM
Experimental: This was examined using purified heme oxygenase fraction derived from rat spleen. It was assayed at 37° C. in the presence of hemin, the substrate of heme oxygenase, cofactor (NADPH, […]), and cytosolic fraction containing bilirubin reductase, in which biliverdin formed by the oxygenase is converted to bilirubin.
Bilirubin was extracted with chloroform and quantified by absorption at 465 nm. By the addition of either PEG-ZnPP, or unmodified ZnPP, or no inhibitor, their effect on heme oxidase was examined, and the Lineweaver-Burk plot of heme oxygenase activity was plotted during the inhibition by PEG-ZnPP. […] Mode of inhibition was competitive, and the value was equivalent to that of unmodified ZnPP.

sarcoma S180 = assay: Antitumor effect in mice bearing solid tumor; type: in vivo, mouse; conditions: ddY mice, i.v. 30, 30 and 50 n mole on days 10, 13 and 15 after implantation, FIG. 4
Experimental: (§1) Similar to Experiment 3 above, sarcoma S180 of mice implanted under the dosal skin of ddY mice, and after 10, 13 and 15 days after tumor implantation, PEG-ZnPP at 30 n mole, 30 n mole and 50 n mole (3 times only), respectively, was injected into the tail vein respectively (see also arrow marks in FIG. 4). Control mice received distilled water instead of PEG-ZnPP.

[2] = test system: Lung adenocarcinoma cell line A549 cells; assay: Oxidative stress in cultured tumor cells (DCDHF fluorescence, flow cytometry); type: cell-based; conditions: 5 μM and 10 μM, 8 hrs, compared with no drug, FIG. 3
Experimental: Lung adenocarcinoma cell line A549 cells were plated in plastic dish and after overnight culture, 5 μM and 10 μM of PEG-ZnPP dissolved in distilled water were added to the culture dishes. Then, 8 hrs after cultivation at 37° C., a reagent that quantifies oxidative stress, called dichlorodihydrofluorescein diacetyl ester (DCDHF) was added and allowing cell culture for 30 minutes. Under oxidative stress, this DCDHF will be become oxidized and will fluoresce due to oxystress was generated by formation of fluorescein in cells.
Quantification of fluorescence intensity represents the extent of oxidative stress induced in the cells. Then, cultured cells were trypsinized and recovered cells were subjected to the flow cytometrory analysis and fluorescence cell population was quantified. The results are shown in FIG. 3, where the effect of PEG-ZnPP at 5 μM, 10 μM, is compared with that of no drug.

[3] = test system: heme oxygenase in S 180 sarcoma tumor tissue; assay: Inhibition of heme oxygenase in solid tumor model in mouse; type: in vivo; conditions: ddY mice, S 180 tumor
Experimental: In male ddY mice with mean body weight of 35 g, S 180 sarcoma cells were implanted in the dorsal skin, and when solid tumor size become 5 mm in cross diameter after about one week, PEG-ZnPP dissolved in distilled water were injected via tail vein (i.v.) at 0.5 mg ZnPP equivalent per Kg body weight. The solid tumors were removed after 24 hr, and heme oxygenase activity was quantified similarly as described in Example 1. Control mouse received distilled water without PEG-ZnPP. The tumor specimens were obtained and treated similarly.

[4] = Change of body weight in mice bearing solid tumor; type: in vivo, mouse; conditions: ddY mice bearing S180, during or after i.v. administration, FIG. 5
Experimental: as §1

tumor = conditions: administered into the tumor feeding artery, oily formulation; K. Doi et al. 1999; cited from earlier work
Solubility in water = type: physicochemical; conditions: for i.v. injection

| Compound | Ki ([1]; 37° C., hemin substrate, NADPH, cytosolic fraction with bilirubin reductase, read-out: inhibitory constant (Ki) against heme oxygenase) [nM] | Inhibition of heme oxygenase (in words) ([1]; FIG. 2) | Mode of inhibition of heme oxygenase ([1]; Lineweaver-Burk plot, FIG. 2) | Tumor growth (tumor size) compared with control group (sarcoma S180) | intracellular oxidative state (DCDHF fluorescence) [2] | Activity of heme oxygenase in tumor tissue ([3]; i.v. tail vein 0.5 mg ZnPP equivalent per Kg, tumor removed after 24 hr, control 4.17 ± 1.07 (P < 0.02)) | Effect on intratumor heme oxygenase activity (in words) ([3]; i.v. tail vein, 24 hr) | Body weight change [4] | Antitumor effect in rats (tumor) | Solubility in water (Solubility in water) | Solubility in water (Solubility in water; listed as Unmodified ZnPP) |
| --- | --- | --- | --- | --- | --- | --- | --- | --- | --- | --- | --- |
| Polyethylene Glycol Conjugated ZnPP [PEG-ZnPP] | 130 | inhibits the heme oxygenase in a dose dependent manner | competitive | remarkable suppression of tumor growth | higher intracellular oxidative state in the dose dependent manner | 2.30 ± 0.54 n mol bilirubin/mg protein/hr | significant reduction of the heme oxygenase activity | no remarkable body weight loss | – | – | – |
| C=CC1=C(C)c2cc3[n-]c(cc4nc(cc5[n-]c(cc1n2)c(C)c5C=C)C(C)=C4CCC(=O)O)c(CCC(=O)O)c3C.[Zn+2] [ZnPP, zinc protoporphyrin] | – | – | – | – | – | – | – | – | confirmed antitumor effect in rats | almost insoluble in water | could not be administered i.v. because of its difficulty in solubility; also recorded: Impossible to solubilize |
